Tests used:
[1] = test system: Epidermal growth factor receptor (Homo sapiens), P00533 [UNDEFINED MUTATION]; assay: Selectivity interaction (KinomeScan (DiscoverX)) EUB0000655a EGFR; details: at 10 µM
[2] = molecular target: Mitogen-activated protein kinase 9 (Homo sapiens, UniProt P45984); assay: Selectivity interaction (ActivX KiNativ screen (kinase selectivity in THP-1 cell lysates)) EUB0000639a MAPK9; type: subcellular; details: lysate
[3] = molecular target: T1, Serine/threonine-protein kinase LATS1 (Homo sapiens) (UniProt O95835); assay: Selectivity interaction (ActivX KiNativ screen (kinase selectivity in THP-1 cell lysates)) EUB0000639a LATS1; type: subcellular; details: lysate, at 0.04 µM
T1 sequence (whole entry): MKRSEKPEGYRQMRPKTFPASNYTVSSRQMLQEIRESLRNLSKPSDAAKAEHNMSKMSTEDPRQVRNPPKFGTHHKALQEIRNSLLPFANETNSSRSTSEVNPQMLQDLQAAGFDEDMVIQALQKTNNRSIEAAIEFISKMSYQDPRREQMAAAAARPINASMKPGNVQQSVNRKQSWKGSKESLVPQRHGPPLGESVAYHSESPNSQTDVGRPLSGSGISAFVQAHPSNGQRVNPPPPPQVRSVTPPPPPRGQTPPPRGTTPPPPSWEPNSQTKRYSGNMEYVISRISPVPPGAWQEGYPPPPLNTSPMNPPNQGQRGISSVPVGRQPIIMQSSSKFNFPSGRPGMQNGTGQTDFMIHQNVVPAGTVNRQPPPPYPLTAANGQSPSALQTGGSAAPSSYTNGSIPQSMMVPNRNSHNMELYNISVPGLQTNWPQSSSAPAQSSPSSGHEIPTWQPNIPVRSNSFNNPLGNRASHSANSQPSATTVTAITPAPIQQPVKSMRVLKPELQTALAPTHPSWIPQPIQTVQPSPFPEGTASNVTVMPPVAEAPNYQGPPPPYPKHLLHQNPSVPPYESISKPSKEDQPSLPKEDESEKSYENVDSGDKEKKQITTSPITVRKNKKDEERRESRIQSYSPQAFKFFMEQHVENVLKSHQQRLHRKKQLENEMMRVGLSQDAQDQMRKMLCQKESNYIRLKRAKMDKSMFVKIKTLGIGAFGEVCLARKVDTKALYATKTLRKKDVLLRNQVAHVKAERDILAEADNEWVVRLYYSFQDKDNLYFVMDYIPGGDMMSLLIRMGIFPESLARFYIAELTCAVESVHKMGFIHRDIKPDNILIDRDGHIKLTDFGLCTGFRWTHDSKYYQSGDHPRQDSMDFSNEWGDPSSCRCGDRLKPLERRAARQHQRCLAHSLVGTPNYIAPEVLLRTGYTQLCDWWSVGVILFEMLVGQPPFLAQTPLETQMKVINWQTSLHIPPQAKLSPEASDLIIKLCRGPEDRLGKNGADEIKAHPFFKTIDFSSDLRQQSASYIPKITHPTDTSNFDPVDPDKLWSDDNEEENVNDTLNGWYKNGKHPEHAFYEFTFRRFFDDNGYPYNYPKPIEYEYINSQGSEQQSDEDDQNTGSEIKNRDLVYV

[4] = Selectivity interaction (Kinase panel (Enzyme activity assay)) EUB0000612a IGF1
[5] = molecular target: Angiopoietin-1 receptor (Homo sapiens) (UniProt Q02763); assay: Selectivity interaction (ProQinase) EUB0000171b TEK; details: at 1 µM
Angiopoietin-1 receptor (Homo sapiens), sequence (Q02763 whole entry): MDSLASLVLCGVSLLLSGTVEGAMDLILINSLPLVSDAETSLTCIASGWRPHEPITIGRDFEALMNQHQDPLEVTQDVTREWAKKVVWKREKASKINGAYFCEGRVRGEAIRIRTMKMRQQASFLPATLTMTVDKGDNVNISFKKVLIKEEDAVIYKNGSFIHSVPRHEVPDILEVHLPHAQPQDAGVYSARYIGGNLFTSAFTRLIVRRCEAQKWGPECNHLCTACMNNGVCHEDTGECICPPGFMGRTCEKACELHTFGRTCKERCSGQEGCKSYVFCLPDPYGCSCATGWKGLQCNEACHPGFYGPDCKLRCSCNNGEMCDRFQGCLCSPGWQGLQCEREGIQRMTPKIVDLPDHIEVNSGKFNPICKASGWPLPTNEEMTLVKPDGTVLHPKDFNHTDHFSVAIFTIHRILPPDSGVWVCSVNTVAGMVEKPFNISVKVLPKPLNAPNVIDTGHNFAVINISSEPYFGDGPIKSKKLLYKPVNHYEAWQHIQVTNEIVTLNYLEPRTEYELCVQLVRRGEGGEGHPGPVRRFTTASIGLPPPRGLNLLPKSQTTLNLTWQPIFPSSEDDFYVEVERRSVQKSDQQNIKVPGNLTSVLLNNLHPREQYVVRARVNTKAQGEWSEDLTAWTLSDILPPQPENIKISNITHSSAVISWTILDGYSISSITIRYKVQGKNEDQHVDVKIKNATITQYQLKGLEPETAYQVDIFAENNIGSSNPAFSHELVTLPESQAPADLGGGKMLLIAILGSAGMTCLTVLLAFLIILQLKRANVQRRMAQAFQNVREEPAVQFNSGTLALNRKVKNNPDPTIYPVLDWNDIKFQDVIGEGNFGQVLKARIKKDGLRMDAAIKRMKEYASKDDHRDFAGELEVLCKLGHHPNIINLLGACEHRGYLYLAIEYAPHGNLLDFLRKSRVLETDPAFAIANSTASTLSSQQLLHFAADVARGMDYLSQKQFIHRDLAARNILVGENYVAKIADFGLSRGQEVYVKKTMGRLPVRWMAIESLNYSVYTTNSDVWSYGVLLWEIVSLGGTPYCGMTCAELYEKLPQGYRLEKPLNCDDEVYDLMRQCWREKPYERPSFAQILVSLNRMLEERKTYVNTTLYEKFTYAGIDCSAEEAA

[6] = molecular target: T2, Non-receptor tyrosine-protein kinase TNK1 (Homo sapiens) (UniProt Q13470); assay: Selectivity interaction (KinomeScan (DiscoverX)) EUB0000666a TNK1; details: at 10 µM
T2 sequence (whole entry): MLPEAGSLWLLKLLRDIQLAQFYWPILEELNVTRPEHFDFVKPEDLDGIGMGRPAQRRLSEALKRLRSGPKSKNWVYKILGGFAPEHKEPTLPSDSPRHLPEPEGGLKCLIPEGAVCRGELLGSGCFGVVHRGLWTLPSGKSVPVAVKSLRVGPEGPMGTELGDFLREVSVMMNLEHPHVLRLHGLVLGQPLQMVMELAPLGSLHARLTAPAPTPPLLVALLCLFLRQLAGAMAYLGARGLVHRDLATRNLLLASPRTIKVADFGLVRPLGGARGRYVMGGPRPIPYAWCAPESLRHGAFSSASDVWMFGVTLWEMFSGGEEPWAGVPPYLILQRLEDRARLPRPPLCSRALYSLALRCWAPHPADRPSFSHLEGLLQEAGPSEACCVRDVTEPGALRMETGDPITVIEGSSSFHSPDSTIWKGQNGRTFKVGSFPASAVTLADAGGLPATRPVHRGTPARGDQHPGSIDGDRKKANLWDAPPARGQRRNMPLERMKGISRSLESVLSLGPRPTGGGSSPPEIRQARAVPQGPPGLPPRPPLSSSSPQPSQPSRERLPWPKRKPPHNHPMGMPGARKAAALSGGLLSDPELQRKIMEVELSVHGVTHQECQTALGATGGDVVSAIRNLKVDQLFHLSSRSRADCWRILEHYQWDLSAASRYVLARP

[7] = molecular target: T3, Phosphorylase b kinase gamma catalytic chain, liver/testis isoform (Homo sapiens) (UniProt P15735); assay: Selectivity interaction (Kinase screening (Nanosyn)) EUB0000604a PHKG2
T3 sequence (whole entry): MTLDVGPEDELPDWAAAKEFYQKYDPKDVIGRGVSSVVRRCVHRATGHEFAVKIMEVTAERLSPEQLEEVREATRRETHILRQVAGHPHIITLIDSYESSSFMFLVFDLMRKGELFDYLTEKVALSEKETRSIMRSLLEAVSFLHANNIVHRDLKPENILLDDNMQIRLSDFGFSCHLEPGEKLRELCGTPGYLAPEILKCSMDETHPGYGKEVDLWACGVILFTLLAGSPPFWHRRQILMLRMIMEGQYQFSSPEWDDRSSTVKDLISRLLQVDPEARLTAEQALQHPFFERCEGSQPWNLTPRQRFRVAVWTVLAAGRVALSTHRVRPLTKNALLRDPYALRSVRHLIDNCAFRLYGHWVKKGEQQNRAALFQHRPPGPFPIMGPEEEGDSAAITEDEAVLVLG

Mitogen-activated protein kinase 9, sequence (P45984 whole entry, looked up): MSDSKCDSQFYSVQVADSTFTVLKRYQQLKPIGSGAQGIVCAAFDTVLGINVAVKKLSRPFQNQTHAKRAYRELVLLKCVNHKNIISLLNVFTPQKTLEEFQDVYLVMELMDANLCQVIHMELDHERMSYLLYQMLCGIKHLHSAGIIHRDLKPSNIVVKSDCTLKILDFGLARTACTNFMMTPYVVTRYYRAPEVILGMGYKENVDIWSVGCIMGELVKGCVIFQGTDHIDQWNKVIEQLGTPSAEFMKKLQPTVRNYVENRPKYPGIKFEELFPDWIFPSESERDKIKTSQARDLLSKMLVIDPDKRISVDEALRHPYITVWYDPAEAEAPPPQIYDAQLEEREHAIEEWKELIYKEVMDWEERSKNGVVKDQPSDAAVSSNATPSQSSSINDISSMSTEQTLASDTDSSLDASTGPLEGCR
Epidermal growth factor receptor (Homo sapiens), P00533 [UNDEFINED MUTATION], sequence (P00533 whole entry, looked up, change not shown): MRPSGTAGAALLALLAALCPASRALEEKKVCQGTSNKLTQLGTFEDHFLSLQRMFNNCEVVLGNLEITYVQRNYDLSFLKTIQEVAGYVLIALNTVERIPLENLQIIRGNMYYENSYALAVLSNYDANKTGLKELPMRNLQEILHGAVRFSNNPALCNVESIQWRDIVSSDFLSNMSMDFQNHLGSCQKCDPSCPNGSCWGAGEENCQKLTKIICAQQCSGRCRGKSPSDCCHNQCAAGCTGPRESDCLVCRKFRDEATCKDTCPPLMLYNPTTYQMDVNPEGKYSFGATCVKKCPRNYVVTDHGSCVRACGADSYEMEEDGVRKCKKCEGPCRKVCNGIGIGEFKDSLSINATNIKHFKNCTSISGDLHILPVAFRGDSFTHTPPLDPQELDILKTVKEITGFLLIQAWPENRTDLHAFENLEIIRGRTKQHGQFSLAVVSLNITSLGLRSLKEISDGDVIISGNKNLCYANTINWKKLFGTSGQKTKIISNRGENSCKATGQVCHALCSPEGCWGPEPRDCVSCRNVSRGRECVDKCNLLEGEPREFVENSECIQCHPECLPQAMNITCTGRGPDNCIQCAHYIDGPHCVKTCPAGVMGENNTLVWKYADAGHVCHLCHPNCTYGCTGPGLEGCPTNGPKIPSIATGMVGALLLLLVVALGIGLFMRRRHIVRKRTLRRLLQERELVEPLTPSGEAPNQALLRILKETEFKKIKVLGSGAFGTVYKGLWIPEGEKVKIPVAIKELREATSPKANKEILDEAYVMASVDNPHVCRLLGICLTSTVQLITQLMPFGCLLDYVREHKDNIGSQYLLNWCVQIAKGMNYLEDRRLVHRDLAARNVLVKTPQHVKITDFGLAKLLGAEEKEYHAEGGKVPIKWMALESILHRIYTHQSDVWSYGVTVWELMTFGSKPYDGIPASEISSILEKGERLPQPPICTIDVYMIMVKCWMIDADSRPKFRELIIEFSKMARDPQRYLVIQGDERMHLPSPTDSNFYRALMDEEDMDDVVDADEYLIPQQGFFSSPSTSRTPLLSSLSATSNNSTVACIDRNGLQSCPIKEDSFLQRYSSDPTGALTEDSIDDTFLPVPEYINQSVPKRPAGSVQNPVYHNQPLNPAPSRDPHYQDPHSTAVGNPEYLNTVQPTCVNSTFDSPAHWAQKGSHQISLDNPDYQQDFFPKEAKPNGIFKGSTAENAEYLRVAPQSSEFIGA

SMILES: CN(C)CCOc1ccc(-c2nc(-c3ccncc3)c(-c3ccc4c(c3)CC/C4=N\O)[nH]2)cc1
- % of control [1]: 81%

SMILES: CC[C@@H]1[C@H](F)C(=O)N[C@@H]1COc1nccc2cc(C(N)=O)c(OC)cc12 [ZIMLOVISERTIB]
- % of inhibition ([2]; at 0.01 µM): 13.3%
- % of inhibition ([2]; at 0.04 µM): -1.4%
- % of inhibition ([2]; at 0.2 µM): 1.6%
- % of inhibition ([2]; at 1 µM): 27.7%
- % of inhibition ([2]; at 5 µM): 57.5%
- % of inhibition [3]: -18.5%

SMILES: CCc1cccc(CC)c1NC(=O)c1nn(C)c2c1CCc1cnc(Nc3ccc(C(=O)NC4CCN(C)CC4)cc3OC(F)(F)F)nc1-2
- IC50 [4]: > 10 µM

SMILES: C=CC(=O)Nc1cccc(C(=O)Nc2ccc(Nc3cc(-c4[nH]c(SC)nc4C)ccn3)cc2)c1
- % of control [5]: 95%

SMILES: O=C(NOC[C@H](O)CO)c1ccc(F)c(F)c1Nc1ccc(I)cc1F
- % of control [6]: 68%

SMILES: Cc1cnc(Nc2ccc(F)cc2Cl)nc1-c1c[nH]c(C(=O)N[C@H](CO)c2cccc(Cl)c2)c1
- % of inhibition [7]: 4%

Source: ChEMBL document CHEMBL5465560, “Selectivity Literature for EUbOPEN Chemogenomic Library” (2024)
